Drawing on ChEMBL document CHEMBL1201862, “PubChem BioAssay data set” (2004), this text covers IC50 and AC50 for five compounds.

The target of one test is T1, Coagulation factor XII (Homo sapiens, UniProt P00748).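 Further: activated factor XIIa alpha cleaving a fluorogenic AMC peptide substrate; inhibitor potency from loss of enzyme activity.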
T1 sequence (P00748 whole entry): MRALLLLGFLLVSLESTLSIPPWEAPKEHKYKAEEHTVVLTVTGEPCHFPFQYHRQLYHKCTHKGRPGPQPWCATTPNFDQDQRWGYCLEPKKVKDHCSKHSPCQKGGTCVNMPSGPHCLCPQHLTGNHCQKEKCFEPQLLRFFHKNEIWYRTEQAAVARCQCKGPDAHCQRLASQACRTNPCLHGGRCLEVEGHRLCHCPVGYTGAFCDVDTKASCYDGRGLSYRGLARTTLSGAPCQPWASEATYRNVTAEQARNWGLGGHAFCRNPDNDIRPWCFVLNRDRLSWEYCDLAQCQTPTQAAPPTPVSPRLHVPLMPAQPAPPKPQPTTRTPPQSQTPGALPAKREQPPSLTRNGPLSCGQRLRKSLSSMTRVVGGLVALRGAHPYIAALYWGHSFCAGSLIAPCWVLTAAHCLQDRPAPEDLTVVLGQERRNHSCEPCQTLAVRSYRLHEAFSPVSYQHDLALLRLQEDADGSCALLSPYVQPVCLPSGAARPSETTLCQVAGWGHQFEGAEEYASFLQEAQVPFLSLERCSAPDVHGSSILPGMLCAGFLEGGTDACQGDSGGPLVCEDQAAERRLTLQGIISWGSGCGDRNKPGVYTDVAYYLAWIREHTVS
It counts as functional.

The next test deals with Protein Wnt-3a (Mus musculus, UniProt P27467). The test is described as follows: antagonism of Wnt3a pathway luciferase reporter – Wnt-LIGHT cells, luminescence, selectivity assay for Gli-SUFU antagonist project, dose response (AID 651570).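 Further: Wnt-LIGHT reporter cells stimulated with conditioned medium from Wnt3a-producing cells.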 It counts as functional. The note with it: read-out: IC50_Mean. (Reporter assays use an easily measured gene product as a stand-in for the process of interest.)

Test [1] has as its target T2, Sentrin-specific protease 8 (Homo sapiens, UniProt Q96LD8).
T2 sequence (Q96LD8 whole entry): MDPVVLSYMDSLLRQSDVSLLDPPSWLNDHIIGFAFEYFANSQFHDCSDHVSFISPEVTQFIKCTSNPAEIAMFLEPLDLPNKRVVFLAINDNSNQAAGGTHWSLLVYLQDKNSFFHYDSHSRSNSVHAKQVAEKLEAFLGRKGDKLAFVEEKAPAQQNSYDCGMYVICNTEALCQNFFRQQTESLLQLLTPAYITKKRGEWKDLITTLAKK
It counts as functional.

Test [2] concerns the target T2, Sentrin-specific protease 8. It counts as functional. The source holds these as a separate data set.
The target of test [3] is Nuclear receptor subfamily 5 group A member 2 (Homo sapiens, UniProt O00482). It counts as functional, cell-based.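 Further: HEK293T cells transfected with LRH-1 and a StAR promoter luciferase reporter; potency for inhibitors that lower LRH-1 driven reporter light.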
For the next test, the target named is Steroidogenic factor 1 (Homo sapiens, UniProt Q13285). Briefly: Counterscreen for inverse agonists of the liver receptor homolog-1 (LRH-1; NR5A2): Luminescence-based cell-based high throughput dose response assay to identify inverse agonists of the Steroidogenic Factor 1 Nuclear Receptor (SF1; NR5A1). It counts as functional. In general terms: A counterscreen serves to expose hits that act by an unwanted route or on another target.

A short description of test [4]: nonselective StAR promoter luciferase inhibitors – cell-based, luminescence, luciferase reporter, counter-screen for LRH-1 inverse agonist project, dose response (AID 651969). It counts as functional.
Test [5] deals with Adenosylmethionine-8-amino-7-oxononanoate aminotransferase (Mycobacterium tuberculosis, UniProt P9WQ81). The test is described as follows: Mycobacterium tuberculosis BioA enzyme inhibitor Measured in Biochemical System Using Plate Reader - 2163-02_Inhibitor_Dose_CherryPick_Activity. It counts as functional, Mycobacterium tuberculosis UT205.
For test [6], the target named is T3, Beta-lactamase (Salmonella choleraesuis (strain SC-B67), UniProt Q5J463). Briefly: Epi-absorbance-based counterscreen for selective VIM-2 inhibitors: dose response biochemical high throughput screening assay to identify inhibitors of TEM-1 serine-beta-lactamase.
The target in test [7] is T4, Beta-lactamase (Pseudomonas aeruginosa, UniProt Q79MP6). Briefly: inhibition of IMP-1 beta-lactamase activity – biochemical, epi-absorbance, selectivity assay for VIM-2 inhibitor project, dose response (AID 1920).
Test [8] addresses T4, Beta-lactamase. Briefly: […] counterscreen for selective VIM-2 inhibitors: dose response biochemical high throughput screening assay to identify inhibitors of IMP-1 metallo-beta-lactamase.
The target in test [9] is T3, Beta-lactamase. The test is described as follows: Late stage results from the probe development efforts to identify selective inhibitors of VIM-2 metallo-beta-lactamase: probe results. Panel member name: Nitrocefin-based TEM-1 Inhibition Counterscreen.
The target in test [10] is T5, Beta Lactamase (Pseudomonas aeruginosa, UniProt Q932Y6). The test is described as follows: Ki and modality of VIM-2 inhibitors – biochemical, probe results, mechanism study, late-stage follow-up, panel member Nitrocefin-based IMP1 Inhibition Counterscreen (AID 2128).
The target in test [11] is T5, Beta Lactamase. Briefly: Ki and modality of VIM-2 inhibitors – biochemical, probe results, mechanism study, late-stage follow-up, panel member Nitrocefin-based VIM2 Inhibition Assay (AID 2128).

The source made the active and inactive calls.

T5 sequence (Q932Y6 whole entry): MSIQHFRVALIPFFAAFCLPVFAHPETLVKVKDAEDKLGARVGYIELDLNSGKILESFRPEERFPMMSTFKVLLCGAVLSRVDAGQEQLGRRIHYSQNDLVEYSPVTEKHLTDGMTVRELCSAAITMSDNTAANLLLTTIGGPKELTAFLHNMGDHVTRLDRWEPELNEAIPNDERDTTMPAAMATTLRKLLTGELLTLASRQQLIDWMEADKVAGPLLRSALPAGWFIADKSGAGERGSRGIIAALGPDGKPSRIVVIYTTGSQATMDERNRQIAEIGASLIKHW
T3 sequence (Q5J463 whole entry): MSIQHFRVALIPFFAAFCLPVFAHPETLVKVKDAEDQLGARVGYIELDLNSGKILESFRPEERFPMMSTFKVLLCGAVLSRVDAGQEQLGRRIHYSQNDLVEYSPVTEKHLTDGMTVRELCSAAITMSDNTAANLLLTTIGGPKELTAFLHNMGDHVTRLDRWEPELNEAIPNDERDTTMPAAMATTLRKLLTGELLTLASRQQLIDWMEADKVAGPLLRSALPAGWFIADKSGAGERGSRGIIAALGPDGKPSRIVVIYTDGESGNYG
T4 sequence (Q79MP6 whole entry): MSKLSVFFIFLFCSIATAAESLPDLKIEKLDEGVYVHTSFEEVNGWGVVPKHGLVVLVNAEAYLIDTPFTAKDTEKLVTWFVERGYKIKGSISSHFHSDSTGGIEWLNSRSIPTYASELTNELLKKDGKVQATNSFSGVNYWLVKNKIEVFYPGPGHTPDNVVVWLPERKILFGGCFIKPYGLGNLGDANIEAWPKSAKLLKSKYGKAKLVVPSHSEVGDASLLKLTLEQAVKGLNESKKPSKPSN
Sequence of Nuclear receptor subfamily 5 group A member 2 (O00482 whole entry): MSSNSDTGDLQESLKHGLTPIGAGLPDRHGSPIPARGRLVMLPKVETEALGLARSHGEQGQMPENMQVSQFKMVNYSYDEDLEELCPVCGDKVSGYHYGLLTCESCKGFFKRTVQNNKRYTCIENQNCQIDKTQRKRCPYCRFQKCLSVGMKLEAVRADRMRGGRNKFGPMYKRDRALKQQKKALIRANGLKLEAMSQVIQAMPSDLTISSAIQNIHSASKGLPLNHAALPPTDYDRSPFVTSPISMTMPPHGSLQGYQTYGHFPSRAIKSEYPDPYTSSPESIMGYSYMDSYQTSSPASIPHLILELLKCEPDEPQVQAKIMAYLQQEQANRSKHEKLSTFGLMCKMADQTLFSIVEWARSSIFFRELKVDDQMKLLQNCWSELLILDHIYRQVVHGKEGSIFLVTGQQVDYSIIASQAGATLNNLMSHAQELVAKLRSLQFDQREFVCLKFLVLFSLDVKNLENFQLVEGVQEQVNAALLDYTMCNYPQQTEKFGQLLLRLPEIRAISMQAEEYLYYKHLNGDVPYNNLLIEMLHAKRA
Sequence of Steroidogenic factor 1 (Q13285 whole entry): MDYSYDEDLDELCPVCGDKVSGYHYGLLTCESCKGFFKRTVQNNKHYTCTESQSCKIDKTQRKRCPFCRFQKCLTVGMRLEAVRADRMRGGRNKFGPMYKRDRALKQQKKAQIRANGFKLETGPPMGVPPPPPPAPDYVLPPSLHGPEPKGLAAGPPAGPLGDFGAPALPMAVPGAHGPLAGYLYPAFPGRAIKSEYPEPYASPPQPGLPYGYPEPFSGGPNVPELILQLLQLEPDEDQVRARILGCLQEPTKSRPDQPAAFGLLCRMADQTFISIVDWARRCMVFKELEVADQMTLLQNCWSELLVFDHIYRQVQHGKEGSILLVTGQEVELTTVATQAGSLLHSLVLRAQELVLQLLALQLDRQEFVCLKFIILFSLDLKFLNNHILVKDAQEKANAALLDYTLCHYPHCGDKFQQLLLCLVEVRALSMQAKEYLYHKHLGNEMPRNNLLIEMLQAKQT
Sequence of Adenosylmethionine-8-amino-7-oxononanoate aminotransferase (P9WQ81 whole entry): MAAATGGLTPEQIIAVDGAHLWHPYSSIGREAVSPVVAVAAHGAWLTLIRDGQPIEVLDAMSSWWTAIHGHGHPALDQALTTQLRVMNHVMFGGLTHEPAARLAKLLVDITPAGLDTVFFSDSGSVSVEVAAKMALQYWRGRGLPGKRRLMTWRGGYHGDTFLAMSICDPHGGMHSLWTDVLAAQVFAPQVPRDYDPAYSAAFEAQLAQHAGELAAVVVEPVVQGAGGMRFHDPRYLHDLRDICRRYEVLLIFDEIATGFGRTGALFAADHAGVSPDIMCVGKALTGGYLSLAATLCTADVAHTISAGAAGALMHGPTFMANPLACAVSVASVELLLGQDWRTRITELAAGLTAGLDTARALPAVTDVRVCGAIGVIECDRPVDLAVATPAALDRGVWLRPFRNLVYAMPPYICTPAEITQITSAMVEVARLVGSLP
Sequence of Protein Wnt-3a (P27467 whole entry): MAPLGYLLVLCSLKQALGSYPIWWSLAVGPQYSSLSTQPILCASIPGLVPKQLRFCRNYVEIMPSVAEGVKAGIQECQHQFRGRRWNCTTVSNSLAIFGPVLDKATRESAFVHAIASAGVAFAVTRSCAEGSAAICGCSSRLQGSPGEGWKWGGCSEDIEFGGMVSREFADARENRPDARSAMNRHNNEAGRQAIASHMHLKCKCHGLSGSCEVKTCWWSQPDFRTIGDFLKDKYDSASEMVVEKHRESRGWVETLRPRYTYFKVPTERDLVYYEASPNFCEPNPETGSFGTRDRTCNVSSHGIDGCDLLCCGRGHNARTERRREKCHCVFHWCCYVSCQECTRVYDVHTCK

`COc1ccc(C2=[N+](C)CCn3cccc32)c(OC)c1`: the results for the IC50 at Coagulation factor XII and at Protein Wnt-3a were > 50 µM (inactive) and 7 µM (active), respectively.

For `O=C(CCS(=O)(=O)Cc1ccccc1F)N1CCc2ccccc2C1`, the figures for the IC50 in test [1] and in test [2] were > 100 µM (inactive) and 7.69 µM (active), respectively.

Regarding `O=C(COC(=O)CCN1C(=O)C2CC=CCC2C1=O)NCCc1ccc(F)cc1` (centres undefined), the IC50 in test [3] was 19.1 µM (inactive); at Steroidogenic factor 1, 2.33 µM (active); in test [4], 35.9 µM (inactive).

Regarding `COc1ccc(NC(=O)c2ccc(Cl)nc2)cc1S(=O)(=O)N1CCOCC1`, the AC50 in test [5] is 2.27 µM (active).

As to `O=c1[nH]c2c(s1)C(c1cccnc1)C1C3CCC(C3)C1S2` (centres undefined), the IC50 at Beta-lactamase [6] is > 59.6 µM (inactive); on Beta-lactamase [7], > 59.6 µM (inactive); at Beta-lactamase [8], > 59.6 µM (inactive); at Beta-lactamase [9], > 60 µM (active); on Beta Lactamase [10] it was > 60 µM (inactive); on Beta Lactamase [11], 223 nM (active).

One may read the AC50 as the concentration at which the activity in the assay is half-maximal.
